US10696674B2, “Spirolactams as inhibitors of ROCK” (BRISTOL-MYERS SQUIBB COMPANY, priority 2016, dated 2020)

target: ROCK2 (Homo sapiens, UniProt O75116); experiment: ROCK2 assay (Caliper LABCHIP peptide phosphorylation); type: biochemical; settings: 5 μM ATP, 1.5 μM peptide substrate
Procedure: The effectiveness of compounds of the present invention as ROCK inhibitors can be determined in a 30 μL assay containing 20 mM HEPES, pH 7.5, 20 mM MgCl2, 0.015% Brij-35, 4 mM DTT, 5 μM ATP and 1.5 μM peptide substrate (FITC-AHA-AKRRRLSSLRA-OH) (SEQ ID NO.1). Compounds were dissolved in DMSO so that the final concentration of DMSO was <2%, and the reaction was initiated with Rho kinase variants. After incubation, the reaction was terminated by the addition of EDTA and the phosphorylated and non-phosphorylated peptides separated using a LABCHIP® 3000 Reader (Caliper Life Sciences). […] Compounds were tested in dose-response format, and the inhibition of kinase activity was calculated at each concentration of compound. The inhibition data were fit using a curve-fitting program to determine the IC50; i.e., the concentration of compound required to inhibit 50% of kinase activity.
Representative Examples were tested in the ROCK2 assay described above and found having ROCK2 inhibitory activity. The ranges of the ROCK2 IC50 values are as follows: ROCK2 IC50: ++++ (<3 nM) +++ (3-30 nM) ++ (30-300 nM) + (300-2000 nM)

Sequence of ROCK2 (O75116 whole entry, species assumed): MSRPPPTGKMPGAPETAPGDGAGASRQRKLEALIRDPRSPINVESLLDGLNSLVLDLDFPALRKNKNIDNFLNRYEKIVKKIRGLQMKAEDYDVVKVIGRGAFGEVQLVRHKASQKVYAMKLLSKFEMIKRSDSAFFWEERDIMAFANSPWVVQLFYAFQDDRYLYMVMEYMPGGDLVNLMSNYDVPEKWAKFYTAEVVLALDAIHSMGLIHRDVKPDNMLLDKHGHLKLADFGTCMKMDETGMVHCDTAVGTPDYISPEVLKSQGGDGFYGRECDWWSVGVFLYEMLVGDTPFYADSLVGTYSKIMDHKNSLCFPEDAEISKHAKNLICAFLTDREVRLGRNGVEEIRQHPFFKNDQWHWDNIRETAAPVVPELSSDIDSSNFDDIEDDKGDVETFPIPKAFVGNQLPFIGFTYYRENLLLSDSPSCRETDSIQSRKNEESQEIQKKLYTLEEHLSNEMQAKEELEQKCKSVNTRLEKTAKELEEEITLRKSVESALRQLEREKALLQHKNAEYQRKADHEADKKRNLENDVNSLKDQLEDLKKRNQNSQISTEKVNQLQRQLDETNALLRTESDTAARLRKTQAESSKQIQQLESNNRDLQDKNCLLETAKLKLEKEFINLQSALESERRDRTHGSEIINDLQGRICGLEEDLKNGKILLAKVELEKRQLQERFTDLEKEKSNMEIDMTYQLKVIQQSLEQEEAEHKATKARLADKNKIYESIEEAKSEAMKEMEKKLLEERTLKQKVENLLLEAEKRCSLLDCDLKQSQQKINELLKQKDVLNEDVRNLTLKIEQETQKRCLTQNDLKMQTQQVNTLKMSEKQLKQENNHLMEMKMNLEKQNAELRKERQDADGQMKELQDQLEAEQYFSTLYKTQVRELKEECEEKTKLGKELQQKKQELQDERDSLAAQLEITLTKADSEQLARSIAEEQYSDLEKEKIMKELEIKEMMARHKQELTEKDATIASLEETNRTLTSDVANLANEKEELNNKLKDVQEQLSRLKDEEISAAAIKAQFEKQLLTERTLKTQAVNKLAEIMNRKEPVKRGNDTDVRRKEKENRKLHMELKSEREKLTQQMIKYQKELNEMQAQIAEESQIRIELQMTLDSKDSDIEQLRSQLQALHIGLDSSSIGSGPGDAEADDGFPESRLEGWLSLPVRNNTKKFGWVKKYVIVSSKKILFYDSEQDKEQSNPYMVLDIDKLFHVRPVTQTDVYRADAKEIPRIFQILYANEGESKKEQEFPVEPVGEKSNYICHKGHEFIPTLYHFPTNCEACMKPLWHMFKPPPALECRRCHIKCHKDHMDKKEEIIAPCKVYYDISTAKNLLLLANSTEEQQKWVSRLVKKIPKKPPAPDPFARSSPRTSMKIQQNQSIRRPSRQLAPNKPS

Row | SMILES | IC50
1 | O=C1N(c2ccc(-c3cn[nH]c3)cc2)CCC12Cc1cc(F)ccc1N2 (racemic) [Example 7, 1′-(4-(1H-Pyrazol-4-yl)phenyl)-5-fluorospiro[indoline-2,3′-pyrrolidin]-2′-one] | 0.003 to 0.03 µM
2 | O=C1N(c2ccc(-c3cn[nH]c3)cc2)CCC12Cc1ccccc1O2 (racemic) [Example 29, 1′-(4-(1H-Pyrazol-4-yl)phenyl)-3H-spiro[benzofuran-2,3′-pyrrolidin]-2′-one] | < 0.003 µM
3 | COc1cc(N2CCC3(Cc4ccccc4N3)C2=O)ccc1-c1cn[nH]c1 (racemic) [Example 32, 1′-(3-methoxy-4-(1H-pyrazol-4-yl)phenyl)spiro[indoline-2,3′-pyrrolidin]-2′-one] | < 0.003 µM
4 | COc1cc(F)c2c(c1)NC1(CCN(c3ccc(-c4cn[nH]c4)cc3)C1=O)C2 (racemic) [Example 38, 1′-(4-(1H-Pyrazol-4-yl)phenyl)-4-fluoro-6-methoxyspiro[indoline-2,3′-pyrrolidin]-2′-one] | < 0.003 µM
5 | O=C1N(c2ccc(-c3cn[nH]c3)cc2)CCC12Cc1ccccc1N2 (single isomer, unassigned) [Example 2, 1′-(4-(1H-Pyrazol-4-yl)phenyl)spiro[indoline-2,3′-pyrrolidin]-2′-one] | < 0.003 µM
6 | O=C1N(c2ccc(-c3cn[nH]c3)cc2)CCC12Cc1ccccc1N2 (single isomer, unassigned) [Example 3, 1′-(4-(1H-Pyrazol-4-yl)phenyl)spiro[indoline-2,3′-pyrrolidin]-2′-one] | 0.03 to 0.3 µM
7 | COc1ccc2c(c1)NC1(CCN(c3ccc(-c4cn[nH]c4)cc3)C1=O)C2 (single isomer, unassigned) [Example 5, 1′-(4-(1H-Pyrazol-4-yl)phenyl)-6-methoxyspiro[indoline-2,3′-pyrrolidin]-2′-one] | < 0.003 µM
8 | COc1ccc2c(c1)NC1(CCN(c3ccc(-c4cn[nH]c4)cc3)C1=O)C2 (single isomer, unassigned) [Example 6, 1′-(4-(1H-Pyrazol-4-yl)phenyl)-6-methoxyspiro[indoline-2,3′-pyrrolidin]-2′-one] | 0.003 to 0.03 µM
9 | O=C1N(c2ccc(-c3cn[nH]c3)cc2)CCC12Cc1cc(F)ccc1N2 (single isomer, unassigned) [Example 8, 1′-(4-(1H-Pyrazol-4-yl)phenyl)-5-fluorospiro[indoline-2,3′-pyrrolidin]-2′-one] | 0.003 to 0.03 µM
10 | O=C1N(c2ccc(-c3cn[nH]c3)cc2)CCC12Cc1cc(F)ccc1N2 (single isomer, unassigned) [Example 9, 1′-(4-(1H-Pyrazol-4-yl)phenyl)-5-fluorospiro[indoline-2,3′-pyrrolidin]-2′-one] | 0.03 to 0.3 µM
11 | O=C1N(c2ccc(-c3cn[nH]c3)cc2)CCC12Cc1ccc(F)cc1C2 (single isomer, unassigned) [Example 15, 1′-(4-(1H-Pyrazol-4-yl)phenyl)-5-fluoro-1,3-dihydrospiro[indene-2,3′-pyrrolidin]-2′-one] | 0.003 to 0.03 µM
12 | O=C1N(c2ccc(-c3cn[nH]c3)cc2)CCC12Cc1ccc(F)cc1C2 (single isomer, unassigned) [Example 16, 1′-(4-(1H-Pyrazol-4-yl)phenyl)-5-fluoro-1,3-dihydrospiro[indene-2,3′-pyrrolidin]-2′-one] | 0.003 to 0.03 µM
13 | COc1nc(N2CCC3(Cc4ccc(F)cc4C3)C2=O)ccc1-c1cn[nH]c1 (single isomer, unassigned) [Example 17, 5-Fluoro-1′-(6-methoxy-5-(1H-pyrazol-4-yl)pyridin-2-yl)-1,3-dihydrospiro[indene-2,3′-pyrrolidin]-2′-one] | < 0.003 µM
14 | COc1nc(N2CCC3(Cc4ccc(F)cc4C3)C2=O)ccc1-c1cn[nH]c1 (single isomer, unassigned) [Example 18, 5-Fluoro-1′-(6-methoxy-5-(1H-pyrazol-4-yl)pyridin-2-yl)-1,3-dihydrospiro[indene-2,3′-pyrrolidin]-2′-one] | 0.003 to 0.03 µM
15 | COc1ccc2c(c1)CC1(CCN(c3ccc(-c4cn[nH]c4)c(OC)n3)C1=O)C2 (single isomer, unassigned) [Example 19, 5-Methoxy-1′-(6-methoxy-5-(1H-pyrazol-4-yl)pyridin-2-yl)-1,3-dihydrospiro[indene-2,3′-pyrrolidin]-2′-one] | 0.3 to 2 µM
16 | COc1ccc2c(c1)CC1(CCN(c3ccc(-c4cn[nH]c4)c(OC)n3)C1=O)C2 (single isomer, unassigned) [Example 20, 5-Methoxy-1′-(6-methoxy-5-(1H-pyrazol-4-yl)pyridin-2-yl)-1,3-dihydrospiro[indene-2,3′-pyrrolidin]-2′-one] | < 0.003 µM
17 | COc1ccc2c(c1)CC1(CCN(c3ccc(-c4cn[nH]c4)cc3)C1=O)C2 (single isomer, unassigned) [Example 22, 1′-(4-(1H-Pyrazol-4-yl)phenyl)-5-methoxy-1,3-dihydrospiro[indene-2,3′-pyrrolidin]-2′-one] | < 0.003 µM

Row | SMILES | IC50
18 | COc1ccc2c(c1)CC1(CCN(c3ccc(-c4cn[nH]c4)cc3)C1=O)O2 (single isomer, unassigned) [Example 25, 1′-(4-(1H-Pyrazol-4-yl)phenyl)-5-methoxy-3H-spiro[benzofuran-2,3′-pyrrolidin]-2′-one] | 0.03 to 0.3 µM
19 | COc1ccc2c(c1)CC1(CCN(c3ccc(-c4cn[nH]c4)cc3)C1=O)O2 (single isomer, unassigned) [Example 26, 1′-(4-(1H-Pyrazol-4-yl)phenyl)-5-methoxy-3H-spiro[benzofuran-2,3′-pyrrolidin]-2′-one] | < 0.003 µM
20 | O=C1N(c2ccc(-c3cn[nH]c3)cc2)CCC12Cc1ccccc1O2 (single isomer, unassigned) [Example 30, 1′-(4-(1H-Pyrazol-4-yl)phenyl)-3H-spiro[benzofuran-2,3′-pyrrolidin]-2′-one] | 0.03 to 0.3 µM
21 | O=C1N(c2ccc(-c3cn[nH]c3)cc2)CCC12Cc1ccccc1O2 (single isomer, unassigned) [Example 31, 1′-(4-(1H-Pyrazol-4-yl)phenyl)-3H-spiro[benzofuran-2,3′-pyrrolidin]-2′-one] | < 0.003 µM
22 | COc1cc(N2CCC3(Cc4ccccc4N3)C2=O)ccc1-c1cn[nH]c1 (single isomer, unassigned) [Example 33, 1′-(3-Methoxy-4-(1H-pyrazol-4-yl)phenyl)spiro[indoline-2,3′-pyrrolidin]-2′-one] | 0.03 to 0.3 µM
23 | COc1cc(N2CCC3(Cc4ccccc4N3)C2=O)ccc1-c1cn[nH]c1 (single isomer, unassigned) [Example 34, 1′-(3-methoxy-4-(1H-pyrazol-4-yl)phenyl)spiro[indoline-2,3′-pyrrolidin]-2′-one] | < 0.003 µM
24 | COc1cc(F)c2c(c1)NC1(CCN(c3ccc(-c4cn[nH]c4)cc3)C1=O)C2 (single isomer, unassigned) [Example 39, 1′-(4-(1H-Pyrazol-4-yl)phenyl)-4-fluoro-6-methoxyspiro[indoline-2,3′-pyrrolidin]-2′-one] | 0.3 to 2 µM
25 | COc1cc(F)c2c(c1)NC1(CCN(c3ccc(-c4cn[nH]c4)cc3)C1=O)C2 (single isomer, unassigned) [Example 40, 1′-(4-(1H-Pyrazol-4-yl)phenyl)-4-fluoro-6-methoxyspiro[indoline-2,3′-pyrrolidin]-2′-one] | < 0.003 µM
26 | O=C1N(c2ccc(-c3cn[nH]c3)cc2)CCC12Cc1ccc(OCC3CC3)cc1N2 (single isomer, unassigned) [Example 42, 1′-(4-(1H-Pyrazol-4-yl)phenyl)-6-(cyclopropylmethoxy)spiro[indoline-2,3′-pyrrolidin]-2′-one] | < 0.003 µM
27 | O=C1N(c2ccc(-c3cn[nH]c3)cc2)CCC12Cc1ccc(OCC3CC3)cc1N2 (single isomer, unassigned) [Example 43, 1′-(4-(1H-Pyrazol-4-yl)phenyl)-6-(cyclopropylmethoxy)spiro[indoline-2,3′-pyrrolidin]-2′-one] | 0.03 to 0.3 µM
28 | COc1ccc2c(c1)NC1(CCN(c3ccc(-c4cn[nH]c4)cc3)C1=O)C2 (stereo not shown) [Example 4, 1′-(4-(1H-Pyrazol-4-yl)phenyl)-6-methoxyspiro[indoline-2,3′-pyrrolidin]-2′-one] | < 0.003 µM
29 | COc1nc(N2CCC3(Cc4ccccc4N3)C2=O)ccc1-c1cn[nH]c1 (stereo not shown) [Example 10, 1′-(6-methoxy-5-(1H-pyrazol-4-yl)pyridin-2-yl)spiro[indoline-2,3′-pyrrolidin]-2′-one] | < 0.003 µM
30 | O=C1N(c2ccc(-c3cn[nH]c3)cc2)CCC12Cc1ccccc1C2 [Example 11, 1′-(4-(1H-Pyrazol-4-yl)phenyl)-1,3-dihydrospiro[indene-2,3′-pyrrolidin]-2′-one] | 0.003 to 0.03 µM
31 | COc1ccc2c(c1)CC1(CCN(c3ccc(-c4cn[nH]c4)cc3)C1=O)N2 (stereo not shown) [Example 12, 1′-(4-(1H-Pyrazol-4-yl)phenyl)-5-methoxyspiro[indoline-2,3′-pyrrolidin]-2′-one] | 0.03 to 0.3 µM
32 | O=C1N(c2ccc(-c3ccc4[nH]ncc4c3)cc2)CCC12Cc1ccccc1N2 (stereo not shown) [Example 13, 1′-(4-(1H-Indazol-5-yl)phenyl)spiro[indoline-2,3′-pyrrolidin]-2′-one] | 0.003 to 0.03 µM
33 | COc1ccc2c(c1)N(C)C1(CCN(c3ccc(-c4cn[nH]c4)cc3)C1=O)C2 (stereo not shown) [Example 14, 1′-(4-(1H-Pyrazol-4-yl)phenyl)-6-methoxy-1-methylspiro[indoline-2,3′-pyrrolidin]-2′-one] | 0.03 to 0.3 µM
34 | COc1nc(N2CCC3(Cc4ccccc4C3)C2=O)ccc1-c1cn[nH]c1 [Example 23, 1′-(6-Methoxy-5-(1H-pyrazol-4-yl)pyridin-2-yl)-1,3-dihydrospiro[indene-2,3′-pyrrolidin]-2′-one] | < 0.003 µM
